This series concerns CCRIS mutagenicity, Ames/micronucleus/aberration tests. Put plainly: CCRIS mutagenicity studies.
The mark [1] stands for this setting: Test System: AMES SALMONELLA TYPHIMURIUM, Strain/Indicator: TA98, Metabolic Activation: HAMSTER, LIVER, S-9, AROCLOR 1254, Method: STANDARD PLATE.
[2] abbreviates: Test System: AMES SALMONELLA TYPHIMURIUM, Strain/Indicator: TA98, Metabolic Activation: NONE, Method: PREINCUBATION
The mark [3] stands for this setting: Test System: AMES SALMONELLA TYPHIMURIUM, Strain/Indicator: TA100, Metabolic Activation: HAMSTER, LIVER, S-9, AROCLOR 1254, Method: STANDARD PLATE.

Activity calls are given as the source filed them. No rule for the calls is given here.

For the molecule `COc1cc(/C=C/C(=O)CC(=O)/C=C/c2ccc(O)c(OC)c2)ccc1O`, the mutagenic call by setting is: (End Point: IN VITRO CHROMOSOMAL ABERRATIONS, Test System: CHO CELLS, Metabolic Activation: NONE) “active; positive (structural changes); presence of iron significantly decreased number o”; (End Point: IN VITRO CHROMOSOMAL ABERRATIONS, Test System: CHO-9 CELLS, Metabolic Activation: NONE) “active; positive (structural changes)”; (End Point: IN VIVO CHROMOSOMAL ABERRATIONS, Test System: BONE MARROW CELLS, Species: RAT, Strain/Sex: WISTAR/MALE, Route: GAVAGE) “inactive; negative; curcumin reduced mutagenic effect of cyclophosphamide”; (End Point: In vitro chromosomal aberrations, Test System: Chinese hamster ovary (CHO-9) cells, Metabolic Activation: None) “active; positive (structural changes)”; (End Point: In vitro micronucleus, Test System: Human lymphocytes, Metabolic Activation: None) “inactive; negative”; (Test System: AMES SALMONELLA TYPHIMURIUM, Strain/Indicator: TA98, Metabolic Activation: HAMSTER, LIVER, S-9, AROCLOR 1254 (10%), Method: PREINCUBATION) “inactive; negative”. Moreover, the mutagenic call is, setting by setting: under setting [1], “inactive; negative”; under setting [2], “inactive; negative”; (Test System: AMES SALMONELLA TYPHIMURIUM, Strain/Indicator: TA98, Metabolic Activation: NONE, Method: STANDARD PLATE) “inactive; negative”; (Test System: AMES SALMONELLA TYPHIMURIUM, Strain/Indicator: TA98, Metabolic Activation: RAT, LIVER, S-9, AROCLOR 1254 (10%), Method: PREINCUBATION) “inactive; negative”; (Test System: AMES SALMONELLA TYPHIMURIUM, Strain/Indicator: TA98, Metabolic Activation: RAT, LIVER, S-9, AROCLOR 1254, Method: STANDARD PLATE) “inactive; negative”; (Test System: AMES SALMONELLA TYPHIMURIUM, Strain/Indicator: TA100, Metabolic Activation: HAMSTER, LIVER, S-9, AROCLOR 1254 (10%), Method: PREINCUBATION) “inactive; negative”. Besides, the mutagenic call was “inactive; negative” under setting [3]; “inactive; negative” (Test System: AMES SALMONELLA TYPHIMURIUM, Strain/Indicator: TA100, Metabolic Activation: NONE, Method: PREINCUBATION); “inactive; negative” (Test System: AMES SALMONELLA TYPHIMURIUM, Strain/Indicator: TA100, Metabolic Activation: NONE, Method: STANDARD PLATE); “inactive; negative” (Test System: AMES SALMONELLA TYPHIMURIUM, Strain/Indicator: TA100, Metabolic Activation: RAT, LIVER, S-9, AROCLOR 1254 (10%), Method: PREINCUBATION); “inactive; negative” (Test System: AMES SALMONELLA TYPHIMURIUM, Strain/Indicator: TA100, Metabolic Activation: RAT, LIVER, S-9, AROCLOR 1254, Method: STANDARD PLATE); “inactive; negative” (Test System: AMES SALMONELLA TYPHIMURIUM, Strain/Indicator: TA1535, Metabolic Activation: HAMSTER, LIVER, S-9, AROCLOR 1254 (10%), Method: PREINCUBATION). Besides, the mutagenic call was “inactive; negative” (Test System: AMES SALMONELLA TYPHIMURIUM, Strain/Indicator: TA1535, Metabolic Activation: HAMSTER, LIVER, S-9, AROCLOR 1254, Method: STANDARD PLATE); “inactive; negative” (Test System: AMES SALMONELLA TYPHIMURIUM, Strain/Indicator: TA1535, Metabolic Activation: NONE, Method: PREINCUBATION); “inactive; negative” (Test System: AMES SALMONELLA TYPHIMURIUM, Strain/Indicator: TA1535, Metabolic Activation: NONE, Method: STANDARD PLATE); “inactive; negative” (Test System: AMES SALMONELLA TYPHIMURIUM, Strain/Indicator: TA1535, Metabolic Activation: RAT, LIVER, S-9, AROCLOR 1254 (10%), Method: PREINCUBATION); “inactive; negative” (Test System: AMES SALMONELLA TYPHIMURIUM, Strain/Indicator: TA1535, Metabolic Activation: RAT, LIVER, S-9, AROCLOR 1254, Method: STANDARD PLATE); “inactive; negative” (Test System: AMES SALMONELLA TYPHIMURIUM, Strain/Indicator: TA1537, Metabolic Activation: HAMSTER, LIVER, S-9, AROCLOR 1254 (10%), Method: PREINCUBATION). The mutagenic call was “inactive; negative” (Test System: AMES SALMONELLA TYPHIMURIUM, Strain/Indicator: TA1537, Metabolic Activation: HAMSTER, LIVER, S-9, AROCLOR 1254, Method: STANDARD PLATE); “inactive; negative” (Test System: AMES SALMONELLA TYPHIMURIUM, Strain/Indicator: TA1537, Metabolic Activation: NONE, Method: PREINCUBATION); “inactive; negative” (Test System: AMES SALMONELLA TYPHIMURIUM, Strain/Indicator: TA1537, Metabolic Activation: NONE, Method: STANDARD PLATE); “inactive; negative” (Test System: AMES SALMONELLA TYPHIMURIUM, Strain/Indicator: TA1537, Metabolic Activation: RAT, LIVER, S-9, AROCLOR 1254 (10%), Method: PREINCUBATION); “inactive; negative” (Test System: AMES SALMONELLA TYPHIMURIUM, Strain/Indicator: TA1537, Metabolic Activation: RAT, LIVER, S-9, AROCLOR 1254, Method: STANDARD PLATE); “inactive; negative” (Test System: AMES SALMONELLA TYPHIMURIUM, Strain/Indicator: TA1538, Metabolic Activation: HAMSTER, LIVER, S-9, AROCLOR 1254, Method: STANDARD PLATE). Moreover, the mutagenic call was “inactive; negative” (Test System: AMES SALMONELLA TYPHIMURIUM, Strain/Indicator: TA1538, Metabolic Activation: NONE, Method: STANDARD PLATE) and “inactive; negative” (Test System: AMES SALMONELLA TYPHIMURIUM, Strain/Indicator: TA1538, Metabolic Activation: RAT, LIVER, S-9, AROCLOR 1254, Method: STANDARD PLATE).
For `O=S(=O)(O)OCc1ccc2ccc3cccc4ccc1c2c34`, the mutagenic call under setting [2] was “active; positive”.
For the molecule `CN(C)c1ccc(N=Nc2cccc3ccccc23)cc1`, the mutagenic call is, setting by setting: under setting [1], “active; positive”; (Test System: AMES SALMONELLA TYPHIMURIUM, Strain/Indicator: TA98, Metabolic Activation: HAMSTER, LIVER, S-9, Method: PREINCUBATION (PRIVAL METHOD)) “active; positive”; (Test System: AMES SALMONELLA TYPHIMURIUM, Strain/Indicator: TA98, Metabolic Activation: RAT, LIVER, S-9, AROCLOR 1254, HAMSTER, LIVER, S-9, AROCLOR 1254, Method: STANDARD PLATE) “active; positive”; under setting [3], “active; positive”; (Test System: AMES SALMONELLA TYPHIMURIUM, Strain/Indicator: TA100, Metabolic Activation: HAMSTER, LIVER, S-9, Method: PREINCUBATION (PRIVAL METHOD)) “active; positive”; (Test System: AMES SALMONELLA TYPHIMURIUM, Strain/Indicator: TA1535, Metabolic Activation: RAT, LIVER, S-9, AROCLOR 1254, HAMSTER, LIVER, S-9, AROCLOR 1254, Method: STANDARD PLATE) “active; positive”. Moreover, the mutagenic call by setting is: (Test System: AMES SALMONELLA TYPHIMURIUM, Strain/Indicator: TA1538, Metabolic Activation: RAT, LIVER, S-9, AROCLOR 1254, HAMSTER, LIVER, S-9, AROCLOR 1254, Method: STANDARD PLATE) “active; positive”; (Test System: MOUSE LYMPHOMA, Strain/Indicator: L5178Y (TK+/TK-), Metabolic Activation: RAT, LIVER, S-9, AROCLOR 1254, Method: SUSPENSION/PLATE) “active; positive. reevaluation of results: positive”; (Test System: Mouse lymphoma, Strain/Indicator: L5178Y (tk+/tk-), Metabolic Activation: None, Method: Suspension/plate) “active; positive”.

The values are drawn from PubChem BioAssay AID1259407 (Chemical Carcinogenesis Research Information System (CCRIS), 2018).
